Data taken from patent US20260130933A1, “PHARMACEUTICAL COMPOSITION FOR PREVENTION OR TREATMENT OF NEPHROPATHY AND/OR DIABETES MELLITUS, COMPRISING ENAVOGLIFLOZIN” (DAEWOONG PHARMACEUTICAL CO., LTD., priority 2022, published 2026).

Experiment: Example 2: phase 3 trial, enavogliflozin 0.3 mg vs dapagliflozin 10 mg once a day for 24 weeks added to metformin in patients with type 2 diabetes (same efficacy, exploratory and safety endpoints)
Format: in vivo, human
Method: Subjects who met the inclusion/exclusion criteria were administered a placebo of the clinical trial drug under single-blind (subject blinding) conditions during a 2-week run-in period while continuing to receive metformin. […] The randomized subjects were administered two tablets of the clinical trial drug for each administration group once a day, and then visited the institution at weeks 6, 12, 18, and 24 during the 24-week administration period to conduct efficacy and safety evaluations.
• 1. Change in HbA1c at week 24 after administration of clinical trial drug compared to Visit 2 (randomization)
• 1. Change in HbA1c at each time point of weeks 6, 12, and 18 after administration of clinical trial drug compared to Visit 2 (randomization) • 2. Change in FPG at each time point of weeks 6, 12, 18, and 24 after administration of clinical trial drug compared to Visit 2 (randomization) • 3. Proportion of subjects achieving HbA1c<7% at each time point of weeks 6, 12, 18, and 24 after administration of clinical trial drug • 4. Proportion of subjects achieving HbA1c<6.5% at each time point of weeks 6, 12, 18, and 24 after administration of clinical trial drug • 5. Proportion of subjects achieving therapeutic response (HbA1c change (HbA1c at Visit 2-HbA1c at each evaluation time point)>0.5% or HbA1c<7% at each evaluation time point compared to Visit 2 (randomization)) at each time point of weeks 6, 12, 18 and 24 after administration of clinical trial drug
• 1. Change in fasting c-peptide at each time point of weeks 6, 12, 18, and 24 after administration of clinical trial drug compared to Visit 2 (randomization) • 2. Change in body weight at each time point of weeks 6, 12, 18, and 24 after administration of clinical trial drug compared to Visit 2 (randomization) • 3. Change in fasting lipid concentration (total cholesterol, LDL-C, HDL-C, and triglycerides) at each time point of weeks 6, 12, 18, and 24 after administration of clinical trial drug compared to Visit 2 (randomization) • 4. Changes in systolic or diastolic blood pressure at each time point of weeks 6, 12, 18, and 24 after administration of clinical trial drug compared to Visit 2 (randomization) • 5. Changes in β-cell function and insulin resistance measured by HOMA-β and HOMA-IR at each time point of weeks 6, 12, 18, and 24 after administration of clinical trial drug compared to Visit 2 (randomization) • 6. Changes in renal function-related indicators (UACR, UGCR) measured by UACR at each time point of weeks 6, 12, 18, and 24 after administration of clinical trial drug compared to Visit 2 (randomization) • 7. Changes in obesity-related indicators (adiponectin, leptin) at each time point of weeks 6, 12, 18, and 24 after administration of clinical trial drug compared to Visit 2 (randomization)

[1] = Week 12, mPPS1, enavogliflozin minus dapagliflozin
[2] = Week 12, mPPS2, enavogliflozin minus dapagliflozin
[3] = Week 18, PPS, enavogliflozin minus dapagliflozin

OC[C@H]1O[C@@H](c2cc(Cc3ccc(C4CC4)cc3)c(Cl)c3c2CCO3)[C@H](O)[C@@H](O)[C@@H]1O [Enavogliflozin, (2S,3R,4R,5S,6R)-2-(7-chloro-6 (4-cyclopropylbenzyl)-2,3-dihydrobenzofuran-4-yl)-6-(hydroxymethyl)tetrahydro-2H-pyran-3,4,5-triol]
HDL-C, Mean (SD) (Week 12, mPPS1): 53.08(10.89) mg/dL
HDL-C, Median (Week 12, mPPS1): 52.50 mg/dL
LDL-C change from baseline, ANCOVA LS mean (SE) (Week 12, mPPS1): 1.86(1.68) mg/dL
LDL-C change from baseline, Mean (SD) (Week 12, mPPS1): 0.78(16.26) mg/dL
LDL-C change from baseline, Median (Week 12, mPPS1): 1.00 mg/dL
LDL-C, Mean (SD) (Week 12, mPPS1): 87.58(30.26) mg/dL
LDL-C, Median (Week 12, mPPS1): 79.00 mg/dL
Triglycerides change from baseline, ANCOVA LS mean (SE) (Week 12, mPPS1): −7.53(4.80) mg/dL
Triglycerides change from baseline, Mean (SD) (Week 12, mPPS1): −5.00(57.85) mg/dL
Triglycerides change from baseline, Median (Week 12, mPPS1): 3.00 mg/dL
Triglycerides, Mean (SD) (Week 12, mPPS1): 116.23(59.46) mg/dL
Triglycerides, Median (Week 12, mPPS1): 100.00 mg/dL
HDL-C change from baseline, LS mean difference [1]: 0.06 mg/dL
LDL-C change from baseline, LS mean difference [1]: 1.30 mg/dL
triglycerides change from baseline, LS mean difference [1]: 2.57 mg/dL
Diastolic blood pressure change from baseline, ANCOVA LS mean (SE) (Week 12, mPPS2): −4.19 mmHg
Diastolic blood pressure change from baseline, Mean (SD) (Week 12, mPPS2): −4.33 mmHg
Diastolic blood pressure change from baseline, Median (Week 12, mPPS2): −4.00 mmHg
Diastolic blood pressure, Mean (SD) (Week 12, mPPS2): 72.66 mmHg
Diastolic blood pressure, Median (Week 12, mPPS2): 72.00 mmHg
Systolic blood pressure change from baseline, ANCOVA LS mean (SE) (Week 12, mPPS2): −5.86(1.04) mmHg
Systolic blood pressure change from baseline, Mean (SD) (Week 12, mPPS2): −6.42(9.73) mmHg
Systolic blood pressure change from baseline, Median (Week 12, mPPS2): −6.00 mmHg
Systolic blood pressure, Mean (SD) (Week 12, mPPS2): 123.29(13.73) mmHg
Systolic blood pressure, Median (Week 12, mPPS2): 123.00 mmHg
diastolic blood pressure change from baseline, LS mean difference [2]: 0.16 mmHg
systolic blood pressure change from baseline, LS mean difference [2]: 0.26 mmHg
Adiponectin change from baseline, ANCOVA LS mean (SE) (Week 18, PPS): 1.33 µg/mL
Adiponectin change from baseline, Mean (SD) (Week 18, PPS): 1.26 µg/mL
Adiponectin change from baseline, Median (Week 18, PPS): 1.14 µg/mL
Adiponectin, Mean (SD) (Week 18, PPS): 8.3 µg/mL
Adiponectin, Median (Week 18, PPS): 7.33 µg/mL
HOMA-IR change from baseline, ANCOVA LS mean (SE) (Week 18, PPS): −1.79
HOMA-IR change from baseline, Mean (SD) (Week 18, PPS): −1.58
HOMA-IR change from baseline, Median (Week 18, PPS): −0.94
HOMA-IR, Mean (SD) (Week 18, PPS): 1.86
HOMA-IR, Median (Week 18, PPS): 1.51
HOMA-β change from baseline, ANCOVA LS mean (SE) (Week 18, PPS): 10.97
HOMA-β change from baseline, Mean (SD) (Week 18, PPS): 10.63
HOMA-β change from baseline, Median (Week 18, PPS): 5.75
HOMA-β, Mean (SD) (Week 18, PPS): 56.39
HOMA-β, Median (Week 18, PPS): 40.45
Leptin change from baseline, ANCOVA LS mean (SE) (Week 18, PPS): -2.49 ng/mL
Leptin change from baseline, Mean (SD) (Week 18, PPS): -2.50 ng/mL
Leptin change from baseline, Median (Week 18, PPS): -1.32 ng/mL
Leptin, Mean (SD) (Week 18, PPS): 9.71 ng/mL
Leptin, Median (Week 18, PPS): 7.22 ng/mL
UACR change from baseline, ANCOVA LS mean (SE) (Week 18, PPS): -23.05 g/kg
UACR change from baseline, Mean (SD) (Week 18, PPS): -17480 mg/kg
UACR change from baseline, Median (Week 18, PPS): -0.70 g/kg
UACR, Mean (SD) (Week 18, PPS): 20320 mg/kg
UACR, Median (Week 18, PPS): 9.80 g/kg
UGCR change from baseline, ANCOVA LS mean (SE) (Week 18, PPS): 60.97 mg/mg
UGCR change from baseline, Mean (SD) (Week 18, PPS): 59.41 mg/mg
UGCR change from baseline, Median (Week 18, PPS): 57.54 mg/mg
UGCR, Mean (SD) (Week 18, PPS): 60.98 mg/mg
UGCR, Median (Week 18, PPS): 58.42 mg/mg
HOMA-IR change from baseline, LS mean difference [3]: −0.32
HOMA-β change from baseline, LS mean difference [3]: −2.53
UACR change from baseline, LS mean difference [3]: -10.10 g/kg
UGCR change from baseline, LS mean difference [3]: 18.25 mg/mg
leptin change from baseline, LS mean difference [3]: -1.26 ng/mL
HDL-C change from baseline, ANCOVA LS mean (SE) (Week 18, mPPS1): 2.46(0.66) mg/dL
HDL-C change from baseline, Mean (SD) (Week 18, mPPS1): 1.89(6.20) mg/dL
HDL-C change from baseline, Median (Week 18, mPPS1): 2.50 mg/dL
HDL-C, Mean (SD) (Week 18, mPPS1): 53.49(11.50) mg/dL
HDL-C, Median (Week 18, mPPS1): 52.50 mg/dL
LDL-C change from baseline, ANCOVA LS mean (SE) (Week 18, mPPS1): 1.42(1.86) mg/dL
LDL-C change from baseline, Mean (SD) (Week 18, mPPS1): 0.50(14.20) mg/dL
LDL-C change from baseline, Median (Week 18, mPPS1): -1.00 mg/dL
